The values below come from ChEMBL document CHEMBL1156925, “Synthesis, structure-activity relationship and crystallographic studies of 3-substituted indolin-2-one RET inhibitors” (Bioorg Med Chem, 2010).

The target of experiment [1] is ALK tyrosine kinase receptor (Homo sapiens, UniProt Q9UM73). Description: Inhibition of ALK by ELISA-based kinase assay. (In general: An ELISA detects its analyte on a solid surface through an enzyme-linked reagent.)
Experiment [2] deals with T1, Receptor-type tyrosine-protein kinase FLT3 (Homo sapiens, UniProt P36888).
T1 sequence (P36888 whole entry): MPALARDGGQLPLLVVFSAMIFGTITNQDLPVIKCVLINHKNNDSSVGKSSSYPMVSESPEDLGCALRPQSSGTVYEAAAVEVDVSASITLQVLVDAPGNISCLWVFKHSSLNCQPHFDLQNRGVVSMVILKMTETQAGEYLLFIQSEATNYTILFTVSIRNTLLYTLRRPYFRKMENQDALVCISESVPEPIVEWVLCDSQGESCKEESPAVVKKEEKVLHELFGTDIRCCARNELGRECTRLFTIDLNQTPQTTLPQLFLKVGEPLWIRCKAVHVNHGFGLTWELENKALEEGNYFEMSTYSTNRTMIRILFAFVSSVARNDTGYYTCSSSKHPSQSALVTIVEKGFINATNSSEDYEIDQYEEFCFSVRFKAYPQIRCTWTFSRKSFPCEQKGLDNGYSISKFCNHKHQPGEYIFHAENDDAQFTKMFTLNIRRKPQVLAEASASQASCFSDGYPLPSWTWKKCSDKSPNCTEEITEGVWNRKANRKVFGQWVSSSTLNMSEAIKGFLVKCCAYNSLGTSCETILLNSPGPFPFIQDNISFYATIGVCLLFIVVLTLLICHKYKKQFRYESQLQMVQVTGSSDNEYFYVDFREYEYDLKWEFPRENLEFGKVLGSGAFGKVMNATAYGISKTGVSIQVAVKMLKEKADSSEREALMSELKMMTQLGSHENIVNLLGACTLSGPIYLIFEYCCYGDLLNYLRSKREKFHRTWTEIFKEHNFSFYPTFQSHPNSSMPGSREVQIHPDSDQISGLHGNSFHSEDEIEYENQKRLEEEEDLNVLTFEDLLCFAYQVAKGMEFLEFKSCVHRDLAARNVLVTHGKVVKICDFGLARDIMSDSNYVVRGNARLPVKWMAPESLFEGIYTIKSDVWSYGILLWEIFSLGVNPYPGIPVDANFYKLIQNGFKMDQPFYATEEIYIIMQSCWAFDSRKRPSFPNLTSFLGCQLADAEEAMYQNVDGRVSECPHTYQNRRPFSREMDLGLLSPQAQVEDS
Description: Inhibition of FLT3 by ELISA-based kinase assay.

A short description of experiment [3]: cells. The settings on record: Mus musculus, BaPTC2.
Experiment [4] can be described thus: cells. The settings on record: Mus musculus, BaF3.
Experiment [5] concerns the target Tyrosine-protein kinase ABL1 (Homo sapiens, UniProt P00519).

Sequence of Tyrosine-protein kinase ABL1 (P00519 whole entry): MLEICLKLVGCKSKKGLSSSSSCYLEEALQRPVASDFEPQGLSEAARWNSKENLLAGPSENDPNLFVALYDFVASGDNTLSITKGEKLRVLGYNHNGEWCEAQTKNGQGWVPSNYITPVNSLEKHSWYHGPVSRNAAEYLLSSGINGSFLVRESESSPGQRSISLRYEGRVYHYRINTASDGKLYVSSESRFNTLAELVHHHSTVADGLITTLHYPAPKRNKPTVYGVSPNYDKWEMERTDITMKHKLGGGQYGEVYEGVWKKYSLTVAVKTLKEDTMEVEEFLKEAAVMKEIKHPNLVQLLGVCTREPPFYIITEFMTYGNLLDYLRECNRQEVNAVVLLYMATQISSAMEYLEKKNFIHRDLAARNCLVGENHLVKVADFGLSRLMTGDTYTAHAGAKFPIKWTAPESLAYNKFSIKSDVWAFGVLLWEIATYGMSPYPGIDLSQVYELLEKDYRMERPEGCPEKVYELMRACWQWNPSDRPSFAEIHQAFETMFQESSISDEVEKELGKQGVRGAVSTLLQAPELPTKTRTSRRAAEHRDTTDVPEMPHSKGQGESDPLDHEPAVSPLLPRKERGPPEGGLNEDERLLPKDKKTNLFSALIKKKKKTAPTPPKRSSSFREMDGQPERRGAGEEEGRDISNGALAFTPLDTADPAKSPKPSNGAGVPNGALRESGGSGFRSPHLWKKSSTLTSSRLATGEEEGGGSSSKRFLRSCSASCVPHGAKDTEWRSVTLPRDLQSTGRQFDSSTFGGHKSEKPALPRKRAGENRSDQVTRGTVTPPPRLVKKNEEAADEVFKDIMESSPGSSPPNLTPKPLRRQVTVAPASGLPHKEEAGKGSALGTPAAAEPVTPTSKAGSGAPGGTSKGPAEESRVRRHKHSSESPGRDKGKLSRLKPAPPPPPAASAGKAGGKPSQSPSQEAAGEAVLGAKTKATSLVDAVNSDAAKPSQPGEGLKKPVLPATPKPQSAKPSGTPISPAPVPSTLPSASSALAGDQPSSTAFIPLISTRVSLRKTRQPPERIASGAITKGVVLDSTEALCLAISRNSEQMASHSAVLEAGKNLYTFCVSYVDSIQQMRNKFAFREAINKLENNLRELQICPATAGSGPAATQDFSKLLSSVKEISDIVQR
Sequence of ALK tyrosine kinase receptor (Q9UM73 whole entry): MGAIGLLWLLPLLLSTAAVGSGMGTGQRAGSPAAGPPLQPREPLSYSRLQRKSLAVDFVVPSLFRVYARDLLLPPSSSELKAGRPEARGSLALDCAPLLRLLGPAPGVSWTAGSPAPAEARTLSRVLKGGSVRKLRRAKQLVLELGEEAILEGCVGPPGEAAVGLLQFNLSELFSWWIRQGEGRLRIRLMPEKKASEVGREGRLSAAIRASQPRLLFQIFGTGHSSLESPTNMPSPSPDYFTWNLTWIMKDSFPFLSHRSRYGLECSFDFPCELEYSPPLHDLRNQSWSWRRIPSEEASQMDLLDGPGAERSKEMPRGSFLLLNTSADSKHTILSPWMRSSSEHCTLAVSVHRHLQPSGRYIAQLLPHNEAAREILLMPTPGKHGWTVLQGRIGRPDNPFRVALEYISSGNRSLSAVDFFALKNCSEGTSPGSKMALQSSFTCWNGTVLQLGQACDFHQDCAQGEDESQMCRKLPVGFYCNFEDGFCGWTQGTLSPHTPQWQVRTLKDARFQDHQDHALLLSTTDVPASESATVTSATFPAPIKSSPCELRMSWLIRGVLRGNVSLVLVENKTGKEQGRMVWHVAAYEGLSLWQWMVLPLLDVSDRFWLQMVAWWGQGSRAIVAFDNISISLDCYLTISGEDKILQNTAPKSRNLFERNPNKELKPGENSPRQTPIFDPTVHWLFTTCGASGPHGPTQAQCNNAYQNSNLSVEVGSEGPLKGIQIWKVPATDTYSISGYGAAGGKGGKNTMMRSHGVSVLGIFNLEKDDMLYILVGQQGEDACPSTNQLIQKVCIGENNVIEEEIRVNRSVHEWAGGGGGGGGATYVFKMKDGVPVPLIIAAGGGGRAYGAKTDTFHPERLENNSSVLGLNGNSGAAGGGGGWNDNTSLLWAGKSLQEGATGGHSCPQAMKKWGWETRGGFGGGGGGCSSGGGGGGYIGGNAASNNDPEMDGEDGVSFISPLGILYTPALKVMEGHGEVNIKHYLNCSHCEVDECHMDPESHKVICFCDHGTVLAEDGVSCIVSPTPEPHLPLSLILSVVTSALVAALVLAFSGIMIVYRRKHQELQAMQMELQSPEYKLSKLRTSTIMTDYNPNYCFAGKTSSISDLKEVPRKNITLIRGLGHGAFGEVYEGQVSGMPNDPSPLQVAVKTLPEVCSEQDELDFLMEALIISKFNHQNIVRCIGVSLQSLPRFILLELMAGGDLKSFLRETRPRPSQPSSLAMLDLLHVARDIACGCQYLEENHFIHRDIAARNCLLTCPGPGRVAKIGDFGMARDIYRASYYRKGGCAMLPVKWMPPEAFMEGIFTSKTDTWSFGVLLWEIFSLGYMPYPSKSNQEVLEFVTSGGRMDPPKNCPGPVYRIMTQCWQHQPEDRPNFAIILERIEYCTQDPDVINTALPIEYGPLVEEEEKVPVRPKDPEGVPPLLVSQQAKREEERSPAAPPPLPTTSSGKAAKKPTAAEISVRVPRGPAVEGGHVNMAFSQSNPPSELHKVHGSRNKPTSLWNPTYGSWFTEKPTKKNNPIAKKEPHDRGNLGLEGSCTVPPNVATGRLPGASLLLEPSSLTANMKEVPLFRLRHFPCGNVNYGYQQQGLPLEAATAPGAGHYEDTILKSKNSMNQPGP

Consider `O=C1Nc2ccccc2/C1=C\c1ccc(O)cc1`, for which the IC50 (usually the concentration needed to halve the response being measured) was > 50 µM in experiment [1]; 1.8 µM in experiment [2]; 16 µM in “cells [3]”; > 50 µM in the experiment “cells [4]”; > 50 µM in experiment [5].
With `Cc1cccc2c1/C(=C/c1ccc(N(C)C)c3ccccc13)C(=O)N2`, the IC50 in experiment [1] was > 50 µM; in experiment [2], 0.4 µM; in “cells [3]” it was 10 µM; in the experiment “cells [4]”, 10 µM; in experiment [5], > 50 µM.
`CN(C)S(=O)(=O)c1ccc2c(c1)/C(=C/c1cc3c([nH]1)CCCC3)C(=O)N2`: the IC50 in experiment [1] is 18 µM; in experiment [2], 8.7 µM; in “cells [3]”, 0.16 µM; in the experiment “cells [4]”, 0.18 µM; in experiment [5], > 50 µM.
On the same counts, the results for `CCOC(=O)c1c(C)[nH]c(/C=C2\C(=O)Nc3ccccc32)c1C` are 5.4 µM, 4.3 µM, 0.025 µM, 2.6 µM and 19 µM.
In the case of `CCN(CC)CCNC(=O)c1c(C)[nH]c(/C=C2\C(=O)Nc3ccc(F)cc32)c1C` [SUNITINIB], the IC50 in “cells [3]” stood at 0.22 µM; in “cells [4]”, 1.2 µM.
